Assay results published in the supplement of paper PMC10307832.

What follows are cell lines tested with CCOC1=CC=CC=C1N=NC2=C(NN(C2=O)C3=NC(=CS3)C4=CC=CC=C4)C [BAM7] + CC(=O)Nc1cccc(-n2c(=O)n(C3CC3)c(=O)c3c(Nc4ccc(I)cc4F)n(C)c(=O)c(C)c32)c1 [Trametinib] (partner 0.02 µM) (assay: relative viability (nuclei count vs DMSO), 5 days (fraction); higher = more cells survive). Conditions: first compound 50 µM.
Procedure, shortened: (§1)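 Relative viability was taken as the ratio of nuclei in treated wells to nuclei in vehicle wells. Lung cancer cell lines in 1536-well plates received compounds by pin tool one day after seeding, either one drug alone or a fixed anchor-drug dose plus five library-drug doses (not always all listed) in √10 steps. Nuclei were counted on 4× images after 5 days of treatment, and values are medians of duplicate plates.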

Cell Line	relative viability
LCLC-103H	0.684
NCI-H520	0.789
NCI-H2126	0.476
EMC-BAC-2	1.02
NCI-H2085	0.52
HCC-366	0.356
NCI-H1666	0.837
NCI-H596	0.736
LK-2	0.841
NCI-H2087	0.173
NCI-H2342	0.82
SK-MES-1	0.495
H3255	0.555
COR-L23	0.657
COR-L 105	0.272
LOU-NH91	0.805

Cell Line	relative viability
ChaGo-K-1	0.842
NCI-H2170	0.816
NCI-H2405	0.715
HOP-62	0.352
HCC-44	1.12
SW 900	0.888
LU99A	0.575
BEN	1.05
HARA	1.13
NCI-H1648	0.464
NCI-H1395	1.06
CAL-12T	0.384
NCI-H2228	0.547
NCI-H1793	0.483
NCI-H1944	0.439
NCI-H358	0.126

What follows are cell lines tested with CCOC1=CC=CC=C1N=NC2=C(NN(C2=O)C3=NC(=CS3)C4=CC=CC=C4)C [BAM7] + Nc1ncn([C@H]2C[C@H](O)[C@@H](CO)O2)c(=O)n1 [Decitabine] (partner 2 µM) in the same assay as above. Conditions: first compound 0.5 µM.
Procedure, shortened: as §1

Cell Line	relative viability
NCI-H522	0.729
NCI-H727	0.894
NCI-H1650	0.39
NCI-H1993	0.582
SW 1573	0.502
NCI-H838	0.514
LCLC-103H	0.751
NCI-H520	0.54
NCI-H2126	0.55
EMC-BAC-2	0.973
NCI-H2085	0.558
HCC-366	0.325
NCI-H1666	0.691
NCI-H596	0.879
LK-2	0.352
NCI-H2087	0.339
NCI-H2342	0.821
SK-MES-1	0.346

Cell Line	relative viability
H3255	0.588
COR-L23	0.428
COR-L 105	0.606
LOU-NH91	0.815
ChaGo-K-1	0.508
NCI-H2170	0.411
NCI-H2405	0.765
HOP-62	0.191
HCC-44	0.96
A549	0.288
LU99A	0.81
BEN	0.726
HARA	0.538
NCI-H1648	0.395
NCI-H1395	0.729
NCI-H1793	0.469
NCI-H1944	0.407
ABC-1	1.06

Same assay, conditions: first compound 5 µM

Cell Line	relative viability
NCI-H522	0.638
NCI-H727	0.954
NCI-H1650	0.409
NCI-H1993	0.633
SW 1573	0.551
NCI-H838	0.447
LCLC-103H	0.77
NCI-H520	0.478
NCI-H2126	0.548
EMC-BAC-2	1.05
NCI-H2085	0.549
HCC-366	0.327
NCI-H1666	0.775
NCI-H596	0.984
LK-2	0.335
NCI-H2087	0.289
NCI-H2342	0.669
SK-MES-1	0.337
H3255	0.612

Cell Line	relative viability
COR-L23	0.453
COR-L 105	0.7
LOU-NH91	0.859
ChaGo-K-1	0.515
NCI-H2170	0.436
NCI-H2405	0.804
HOP-62	0.256
HCC-44	0.938
A549	0.29
SW 900	0.465
LU99A	0.95
BEN	0.741
HARA	0.59
NCI-H1648	0.642
NCI-H1395	0.875
NCI-H1793	0.552
NCI-H1944	0.405
ABC-1	0.983
NCI-H358	0.199

Same assay, conditions: first compound 15.81 µM

Cell Line	relative viability
NCI-H522	0.687
NCI-H727	0.89
NCI-H1650	0.431
NCI-H1993	0.498
SW 1573	0.636
NCI-H838	0.452
LCLC-103H	0.709
NCI-H520	0.484
NCI-H2126	0.509
EMC-BAC-2	1.01
NCI-H2085	0.47
HCC-366	0.319
NCI-H1666	0.718
NCI-H596	0.908
LK-2	0.347
NCI-H2087	0.292
NCI-H2342	0.594
SK-MES-1	0.375
H3255	0.582

Cell Line	relative viability
COR-L23	0.461
COR-L 105	0.678
LOU-NH91	0.783
ChaGo-K-1	0.512
NCI-H2170	0.405
NCI-H2405	0.757
HOP-62	0.226
HCC-44	0.926
A549	0.251
LU99A	0.933
BEN	0.673
HARA	0.545
NCI-H1648	0.432
NCI-H1395	0.707
NCI-H1793	0.467
NCI-H1944	0.41
ABC-1	1.34
NCI-H358	0.232

Same assay, conditions: first compound 50 µM

Cell Line	relative viability
NCI-H522	0.671
NCI-H727	0.808
NCI-H1650	0.38
NCI-H1993	0.551
SW 1573	0.594
NCI-H838	0.478
LCLC-103H	0.708
NCI-H520	0.525
NCI-H2126	0.617
EMC-BAC-2	1.12
NCI-H2085	0.604
HCC-366	0.313
NCI-H1666	0.677
NCI-H596	1.09
LK-2	0.326
NCI-H2087	0.297
NCI-H2342	0.551
SK-MES-1	0.395
H3255	0.603

Cell Line	relative viability
COR-L23	0.468
COR-L 105	0.622
LOU-NH91	0.799
ChaGo-K-1	0.536
NCI-H2170	0.432
NCI-H2405	0.73
HOP-62	0.255
HCC-44	0.949
A549	0.288
SW 900	0.494
LU99A	0.876
BEN	0.905
HARA	0.531
NCI-H1648	0.404
NCI-H1395	0.722
NCI-H1793	0.486
NCI-H1944	0.403
ABC-1	1.06
NCI-H358	0.224

Each cell line was assayed with CCOC1=CC=CC=C1N=NC2=C(NN(C2=O)C3=NC(=CS3)C4=CC=CC=C4)C [BAM7] + CC(C)C[C@H](NC(=O)[C@H](Cc1ccccc1)NC(=O)c1cnccn1)B(O)O [Bortezomib] (partner 0.002 µM) in the same assay as above. Conditions: first compound 0.5 µM.
Procedure, shortened: as §1

Cell Line	relative viability
NCI-H727	0.832
NCI-H1650	0.235
EBC-1	0.497
NCI-H1703	0.428
NCI-H1993	0.843
SW 1573	0.953
NCI-H838	0.771
LCLC-103H	1.15
NCI-H520	0.625
NCI-H2126	1.07
EMC-BAC-2	1.04
NCI-H2085	1.07
Calu-6	0.969
HCC-366	1.09
NCI-H1666	0.852
NCI-H596	1.01
NCI-H2087	0.892

Cell Line	relative viability
H3255	0.674
COR-L23	1.03
COR-L 105	0.747
IA-LM	0.789
LOU-NH91	0.476
ChaGo-K-1	0.861
NCI-H2405	1.02
HOP-62	0.854
HCC-44	1.01
LU99A	1.21
BEN	0.823
HARA	1.14
NCI-H1299	1.02
CAL-12T	0.986
NCI-H2228	1.31
NCI-H1563	0.972
ABC-1	0.326

Same assay, conditions: first compound 5 µM

Cell Line	relative viability
NCI-H727	1.14
NCI-H1650	0.297
EBC-1	0.503
NCI-H1703	0.304
NCI-H1993	0.836
SW 1573	1.07
NCI-H838	0.961
LCLC-103H	1.1
NCI-H520	0.75
NCI-H2126	1
EMC-BAC-2	1.16
NCI-H2085	1.12
Calu-6	0.986
HCC-366	1.11
NCI-H1666	0.682
NCI-H596	1.13
NCI-H2087	0.85

Cell Line	relative viability
H3255	0.798
COR-L23	1.06
COR-L 105	0.831
IA-LM	0.98
LOU-NH91	0.508
ChaGo-K-1	1.09
NCI-H2405	1.04
HOP-62	0.98
HCC-44	0.921
LU99A	1.22
BEN	0.825
HARA	1.26
NCI-H1299	1.04
CAL-12T	0.97
NCI-H2228	1.31
NCI-H1563	0.82
ABC-1	0.355

Same assay, conditions: first compound 15.81 µM

Cell Line	relative viability
NCI-H727	0.916
NCI-H1650	0.202
EBC-1	0.531
NCI-H1703	0.164
NCI-H1993	0.472
SW 1573	1.07
NCI-H838	0.631
LCLC-103H	1.1
NCI-H520	0.441
NCI-H2126	1.08
EMC-BAC-2	1.11
NCI-H2085	0.979
Calu-6	0.94
HCC-366	1.08
NCI-H1666	0.729
NCI-H596	0.889
NCI-H2087	0.843

Cell Line	relative viability
H3255	0.7
COR-L23	0.845
COR-L 105	0.854
IA-LM	0.756
LOU-NH91	0.546
ChaGo-K-1	1.14
NCI-H2405	1.01
HOP-62	1.05
HCC-44	0.879
LU99A	1.34
BEN	1.02
HARA	1.09
NCI-H1299	1.03
CAL-12T	1
NCI-H2228	0.798
NCI-H1563	0.899
ABC-1	0.295

Same assay, conditions: first compound 50 µM

Cell Line	relative viability
NCI-H727	0.739
NCI-H1650	0.199
EBC-1	0.574
NCI-H1703	0.338
NCI-H1993	1.09
SW 1573	0.972
NCI-H838	1.1
LCLC-103H	1.18
NCI-H520	0.708
NCI-H2126	1.08
EMC-BAC-2	1.17
NCI-H2085	1.16
Calu-6	1.01
HCC-366	1.08
NCI-H1666	0.998
NCI-H596	1.25
NCI-H2087	0.767

Cell Line	relative viability
H3255	0.624
COR-L23	0.916
COR-L 105	1.03
IA-LM	0.777
LOU-NH91	0.486
ChaGo-K-1	0.969
NCI-H2405	0.991
HOP-62	0.847
HCC-44	0.838
LU99A	1.15
BEN	0.976
HARA	1.14
NCI-H1299	0.963
CAL-12T	1.09
NCI-H2228	1.21
NCI-H1563	1.06
ABC-1	0.383
